Assay results published in ChEMBL document CHEMBL4308841, “Synthesis, in vitro antiproliferative activity, and kinase inhibitory effects of pyrazole-containing diarylureas and diarylamides” (Eur J Med Chem, 2018).

Legend:
[1] = tested on: NCI-H522; assay: Growth inhibition of human NCI-H522 cells assessed as cell growth at 10 uM incubated for 48 hrs by sulforhodamine B assay relative to control; type: functional; conditions: NCI-H522, 48 h, read-out: Activity
[2] = tested on: NCI-H522; assay: Growth inhibition of human NCI-H522 cells incubated for 48 hrs by sulforhodamine B assay; type: functional, cell-based; conditions: NCI-H522, 48 h
[3] = tested on: HT-29; assay: Growth inhibition of human HT-29 cells incubated for 48 hrs by sulforhodamine B assay; type: functional, cell-based; conditions: HT-29, 48 h
[4] = tested on: M14; assay: Growth inhibition of human M14 cells incubated for 48 hrs by sulforhodamine B assay; type: functional, cell-based; conditions: M14, 48 h
[5] = tested on: SK-MEL-2; assay: Growth inhibition of human SK-MEL-2 cells incubated for 48 hrs by sulforhodamine B assay; type: functional, cell-based; conditions: SK-MEL-2, 48 h
[6] = tested on: OVCAR-3; assay: Growth inhibition of human OVCAR3 cells incubated for 48 hrs by sulforhodamine B assay; type: functional, cell-based; conditions: OVCAR-3, 48 h
[7] = tested on: A498; assay: Growth inhibition of human A498 cells incubated for 48 hrs by sulforhodamine B assay; type: functional, cell-based; conditions: A498, 48 h
[8] = tested on: HL-60(TB); assay: Growth inhibition of human HL-60(TB) cells assessed as cell growth at 0.01 uM incubated for 48 hrs by sulforhodamine B assay relative to control; type: functional; conditions: HL-60, 48 h, read-out: Activity
[9] = tested on: HOP-62; assay: Growth inhibition of human HOP62 cells assessed as cell growth at 0.01 uM incubated for 48 hrs by sulforhodamine B assay relative to control; type: functional; conditions: HOP-62, 48 h, read-out: Activity
[10] = tested on: MDA-MB-435; assay: Growth inhibition of human MDA-MB-435 cells assessed as cell growth at 0.01 uM incubated for 48 hrs by sulforhodamine B assay relative to control; type: functional; conditions: MDA-MB-435, 48 h, read-out: Activity
[11] = tested on: OVCAR-8; assay: Growth inhibition of human OVCAR8 cells assessed as cell growth at 0.01 uM incubated for 48 hrs by sulforhodamine B assay relative to control; type: functional; conditions: OVCAR-8, 48 h, read-out: Activity
[12] = tested on: K562; assay: Growth inhibition of human K562 cells assessed as cell growth at 0.1 uM incubated for 48 hrs by sulforhodamine B assay relative to control; type: functional; conditions: K562, 48 h, read-out: Activity
[13] = tested on: MOLT-4; assay: Growth inhibition of human MOLT4 cells assessed as cell growth at 0.1 uM incubated for 48 hrs by sulforhodamine B assay relative to control; type: functional; conditions: MOLT-4, 48 h, read-out: Activity
[14] = tested on: SR; assay: Growth inhibition of human SR cells assessed as cell growth at 0.1 uM incubated for 48 hrs by sulforhodamine B assay relative to control; type: functional; conditions: read-out: Activity
[15] = tested on: HCC 2998; assay: Growth inhibition of human HCC2998 cells assessed as cell growth at 0.1 uM incubated for 48 hrs by sulforhodamine B assay relative to control; type: functional; conditions: HCC 2998, 48 h, read-out: Activity
[16] = tested on: HCT-15; assay: Growth inhibition of human HCT15 cells assessed as cell growth at 0.1 uM incubated for 48 hrs by sulforhodamine B assay relative to control; type: functional; conditions: HCT-15, 48 h, read-out: Activity
[17] = tested on: SF-295; assay: Growth inhibition of human SF295 cells assessed as cell growth at 0.1 uM incubated for 48 hrs by sulforhodamine B assay relative to control; type: functional; conditions: SF-295, 48 h, read-out: Activity
[18] = tested on: MDA-MB-468; assay: Growth inhibition of human MDA-MB-468 cells assessed as cell growth at 0.1 uM incubated for 48 hrs by sulforhodamine B assay relative to control; type: functional; conditions: MDA-MB-468, 48 h, read-out: Activity
[19] = tested on: K562; assay: Growth inhibition of human K562 cells assessed as cell growth at 1 uM incubated for 48 hrs by sulforhodamine B assay relative to control; type: functional; conditions: K562, 48 h, read-out: Activity
[20] = tested on: HOP-62; assay: Growth inhibition of human HOP62 cells assessed as cell growth at 1 uM incubated for 48 hrs by sulforhodamine B assay relative to control; type: functional; conditions: HOP-62, 48 h, read-out: Activity
[21] = tested on: KM12; assay: Growth inhibition of human KM12 cells assessed as cell growth at 1 uM incubated for 48 hrs by sulforhodamine B assay relative to control; type: functional; conditions: KM12, 48 h, read-out: Activity
[22] = tested on: UO-31; assay: Growth inhibition of human UO31 cells assessed as cell growth at 1 uM incubated for 48 hrs by sulforhodamine B assay relative to control; type: functional; conditions: UO-31, 48 h, read-out: Activity
[23] = tested on: DU-145; assay: Growth inhibition of human DU145 cells assessed as cell growth at 1 uM incubated for 48 hrs by sulforhodamine B assay relative to control; type: functional; conditions: DU-145, 48 h, read-out: Activity
[24] = tested on: HL-60(TB); assay: Growth inhibition of human HL-60(TB) cells assessed as cell growth at 100 uM incubated for 48 hrs by sulforhodamine B assay relative to control; type: functional; conditions: HL-60, 48 h, read-out: Activity
[25] = tested on: K562; assay: Growth inhibition of human K562 cells assessed as cell growth at 100 uM incubated for 48 hrs by sulforhodamine B assay relative to control; type: functional; conditions: K562, 48 h, read-out: Activity
[26] = tested on: MOLT-4; assay: Growth inhibition of human MOLT4 cells assessed as cell growth at 100 uM incubated for 48 hrs by sulforhodamine B assay relative to control; type: functional; conditions: MOLT-4, 48 h, read-out: Activity
[27] = tested on: HCC 2998; assay: Growth inhibition of human HCC2998 cells assessed as cell growth at 100 uM incubated for 48 hrs by sulforhodamine B assay relative to control; type: functional; conditions: HCC 2998, 48 h, read-out: Activity
[28] = tested on: HT-29; assay: Growth inhibition of human HT-29 cells assessed as cell growth at 100 uM incubated for 48 hrs by sulforhodamine B assay relative to control; type: functional; conditions: HT-29, 48 h, read-out: Activity
[29] = tested on: MDA-MB-435; assay: Growth inhibition of human MDA-MB-435 cells assessed as cell growth at 100 uM incubated for 48 hrs by sulforhodamine B assay relative to control; type: functional; conditions: MDA-MB-435, 48 h, read-out: Activity
[30] = tested on: MDA-MB-468; assay: Growth inhibition of human MDA-MB-468 cells assessed as cell growth at 100 uM incubated for 48 hrs by sulforhodamine B assay relative to control; type: functional; conditions: MDA-MB-468, 48 h, read-out: Activity
[31] = read-out: LC50 (the source's name)
[32] = read-out: pLC50 (the source's name) (converted)

O=C(Nc1cccc(-n2cc(-c3ccncc3)c(-c3cc(O)cc(Cl)c3)n2)c1)c1ccc(N2CCOCC2)c(C(F)(F)F)c1
growth at 10 µM [1]: 18.8%
GI50 ([2]; read-out: GI50): 0.934 µM
CC50 [2, 31]: > 100 µM
TGI ([2]; read-out: TGI): 12.1 µM
GI50 ([2]; read-out: pGI50 (converted)): 0.933 µM
CC50 [2, 32]: > 100 µM
TGI ([2]; read-out: pTGI (converted)): 12 µM
GI50 ([3]; read-out: GI50): 3.03 µM
CC50 [3, 31]: > 100 µM
TGI ([3]; read-out: TGI): 11.3 µM
GI50 ([3]; read-out: pGI50 (converted)): 3.02 µM
CC50 [3, 32]: > 100 µM
TGI ([3]; read-out: pTGI (converted)): 11.2 µM
GI50 ([4]; read-out: GI50): 0.774 µM
CC50 [4, 31]: 54.5 µM
TGI ([4]; read-out: TGI): 21.4 µM
GI50 ([4]; read-out: pGI50 (converted)): 0.776 µM
CC50 [4, 32]: 8.51 µM
TGI ([4]; read-out: pTGI (converted)): 2.75 µM
GI50 ([5]; read-out: GI50): 2.34 µM
CC50 [5, 31]: > 100 µM
TGI ([5]; read-out: TGI): 13.2 µM
GI50 ([5]; read-out: pGI50 (converted)): 2.34 µM
CC50 [5, 32]: > 100 µM
TGI ([5]; read-out: pTGI (converted)): 13.2 µM
IC50 [6]: 7.2 µM
GI50 ([6]; read-out: GI50): 7.2 µM
CC50 [6, 31]: > 100 µM
TGI ([6]; read-out: TGI): > 100 µM
GI50 ([6]; read-out: pGI50 (converted)): 7.24 µM
CC50 [6, 32]: > 100 µM
TGI ([6]; read-out: pTGI (converted)): > 100 µM
GI50 ([7]; read-out: GI50): 1.94 µM
CC50 [7, 31]: > 100 µM
TGI ([7]; read-out: TGI): 73.2 µM
GI50 ([7]; read-out: pGI50 (converted)): 19.5 µM
CC50 [7, 32]: > 100 µM
TGI ([7]; read-out: pTGI (converted)): 72.4 µM
growth at 0.01 µM [8]: 92%
growth at 0.01 µM [9]: 100%
growth at 0.01 µM [10]: 96%
growth at 0.01 µM [11]: 101%
growth at 0.1 µM [12]: 100%
growth at 0.1 µM [13]: 97%
growth at 0.1 µM [14]: 98%
growth at 0.1 µM [15]: 100%
growth at 0.1 µM [16]: 94%
growth at 0.1 µM [17]: 90%
growth at 0.1 µM [18]: 54%
growth at 1 µM [19]: 30%
growth at 1 µM [20]: 85%
growth at 1 µM [21]: 54%
growth at 1 µM [22]: 57%
growth at 1 µM [23]: 92%
growth at 100 µM [24]: -48%
growth at 100 µM [25]: -24%
growth at 100 µM [26]: -20%
growth at 100 µM [27]: -28%
growth at 100 µM [28]: -41%
growth at 100 µM [29]: 8%
growth at 100 µM [30]: -15%
